According to US10941107B2, “Prodrugs of gamma-hydroxybutyric acid, compositions and uses thereof” (XW LABORATORIES INC., priority 2015, dated 2021):
Counter-ions that a name gives are not always drawn. Like-named read-outs stand apart in the source and are kept apart here.

Legend:
[1] = both, human, pooled liver S9 fractions
[2] = Rat liver S9 fractions metabolic stability assay; conditions: both, pooled liver S9 fractions
[3] = Rat hepatocytes metabolic stability assay; type: in vitro ADME; conditions: male, cryopreserved hepatocytes; rat hepatocytes 1×10^6 viable cells/mL
Method: (§1) Rat/Human Hepatocytes Metabolic Stability Assay
(§2) 2) 30 mM stock solutions of test compounds were prepared in DMSO. Thawing medium and supplement incubation medium (serum-free) were placed in a 37° C. water bath for at least 15 minutes prior to use. Stock solutions were diluted to 500 μM by combining 295 μL acetonitrile and 5 μL of 30 mM stock solution. 3) Vials of cryopreserved hepatocytes were removed from storage, ensured that vials remain at cryogenic temperatures. The pressure was removed by loosening and re-tightening the cap. The vials were thawed in a 37° C. water bath with gently shaking. Vials were kept in water bath until all ice crystals had dissolved and were no longer visible. Vials were sprayed with 70% ethanol before being transferred to a biosafety cabinet. And then the contents were poured into the 50 mL thawing medium conical tube. Vials were centrifuged at 100 g for 10 minutes at room temperature. Thawing medium was aspirated and hepatocytes were resuspended with serum-free incubation medium to yield ˜1.5×10^6 cells/mL. 4) Cell viability and density were counted using a Trypan Blue exclusion, and then cells were diluted with serum-free incubation medium to a working cell density of 1×10^6 viable cells/ml. 5) A portion of the hepatocytes at 1×10^6 viable cells/mL was boiled for 10 min prior to adding to the plate as negative control to eliminate the enzymatic activity so that little or no substrate turnover should be observed. The inactivated hepatocytes were used to prepare negative samples, which were used to exclude the misleading factor that resulted from instability of chemical itself 6) Aliquots of 247.5 μL hepatocytes were dispensed into each well of a 96-well non-coated plate. The plate was placed in the incubator on an orbital shaker at 500 rpm for approximately 10 minutes. 7) Aliquots of 2.5 μL of the 500 μM test compounds were added into respective wells of the non-coated 96-well plate to start the reaction. This assay was performed in duplicate. The plate was incubated in the incubator on an orbital shaker at 500 rpm for the designed time points. […]

[4] = Human hepatocytes metabolic stability assay; type: in vitro ADME; conditions: both sexes, cryopreserved hepatocytes; human hepatocytes 1×10^6 viable cells/mL
Method: as §1, §2

[5] = Dog pharmacokinetic study; type: in vivo, male Beagle dogs; conditions: male, Beagle, plasma, IV
Excerpt: For dog pharmacokinetic studies, male Beagle dogs were housed individually. Dogs in oral administration groups were fasted overnight before use but with free access to water supply. Dogs in IV groups have free access to food and water. […]

[6] = background statement; cited from earlier work
[7] = Rat pharmacokinetic study; conditions: male, Sprague-Dawley, plasma, 50 mg/kg
[8] = background statement; cited from earlier work; remark: listed apart in the source

SMILES	half-life at 5 μM [1]	half-life at 5 μM [2]	half-life at 5 μM [3]	half-life at 5 μM [4]	also measured
O=C(O)CCCOC(=O)Oc1ccccc1 [Compound 32, 4-(phenoxycarbonyloxy)butanoic acid]	40.4 min	8.5 min			
CC(C)[C@H](N)C(=O)OCCCC(=O)O [Compound 58, (S)-4-(2-amino-3-methylbutanoyloxy)butanoic acid]			46.7 min	160 min	
CC(C)C(=O)NCC(=O)OCCCC(=O)O [Compound 64, 4-(2-isobutyramidoacetoxy)butanoic acid]	58 min	62.7 min			
CC(=O)NCC(=O)OCCCC(=O)O [Compound 66, 4-(2-acetamidoacetoxy)butanoic Acid]	9.21 min	8 min	16.7 min	24.9 min	
CC(=O)N[C@H](C(=O)OCCCC(=O)O)C(C)C [Compound 67, (S)-4-(2-acetamido-3-methylbutanoyloxy)butanoic acid]	83.2 min	74.2 min	131 min	220 min	
CC(OC(=O)OCCCC(=O)O)OC(=O)c1ccccc1 (stereo not shown) [Compound 89, 4-(1-(benzoyloxy)ethoxycarbonyloxy)butanoic Acid]	10.5 min	17.5 min			
O=C(O)CCCO [GHB sodium salt]					AUC(0-t) ([5]; GHB sodium salt 20 mg/kg): 35700 ng·h/mL; bioavailability ([5]; GHB sodium salt 20 mg/kg (reference), read-out: Bioavailability F (%)): 100%; reduction of the total number of cataplexy episodes [6]: ~70%; AUC(0-t) ([7]; iv): 25900 ng·h/mL; bioavailability ([7]; iv): 100%; AUC(0-t) ([7]; po): 6700 ng·h/mL; Cmax ([7]; po): 7600 ng/mL; Tmax ([7]; po): 17 min; bioavailability ([7]; po): 26%; plasma half-life (t1/2) [8]: < 60 min
Cl.N[C@@H](Cc1ccccc1)C(=O)OCCCC(=O)O [hydrochloride salt of Compound 57, (S)-4-(2-amino-3-phenylpropanoyloxy)butanoic acid hydrochloride]	2.15 min	2.48 min			
